The results in this text go back to PMC3968014, “Design and Synthesis of a Library of Lead-Like 2,4-Bisheterocyclic Substituted Thiophenes as Selective Dyrk/Clk Inhibitors” (PLoS ONE, 2014).

The target of one assay is T1, CLK4 (Homo sapiens, UniProt Q9HAZ1).
T1 construct: purchased Life Technologies (Invitrogen SelectScreen); Dyrk1A, Dyrk2 and CK2α in-house or gifts
The assay can be described thus: Selectivity panel CLK4. The format is biochemical. Conditions: 5 µM inhibitor.

In a further assay the target is T2, MAPK1 (ERK2) (Homo sapiens, UniProt P28482).
T2 construct: purchased Life Technologies (Invitrogen SelectScreen); Dyrk1A, Dyrk2 and CK2α in-house or gifts
The assay can be described thus: Selectivity panel MAPK1. The format is biochemical. The following applies: 5 µM inhibitor.

Another assay addresses T3, EEF2K (Homo sapiens, UniProt O00418).
T3 construct: purchased Life Technologies (Invitrogen SelectScreen); Dyrk1A, Dyrk2 and CK2α in-house or gifts
The experiment in a line: Selectivity panel EEF2K. The format is biochemical. Conditions: 5 µM inhibitor.

Another assay deals with T4, SGK (SGK1) (Homo sapiens, UniProt O00141).
T4 construct: purchased Life Technologies (Invitrogen SelectScreen); Dyrk1A, Dyrk2 and CK2α in-house or gifts
The assay can be described thus: Selectivity panel SGK. The assay is classed as biochemical. Conditions: 5 µM inhibitor.

The target in another assay is T5, PDK1 (Homo sapiens, UniProt O15530).
T5 construct: purchased Life Technologies (Invitrogen SelectScreen); Dyrk1A, Dyrk2 and CK2α in-house or gifts
The assay can be described thus: Selectivity panel PDK1. The format is biochemical. The following applies: 5 µM inhibitor.

The next assay deals with T6, AMPK A1/B1/G1 (Homo sapiens, UniProt Q13131).
T6 construct: purchased Life Technologies (Invitrogen SelectScreen); Dyrk1A, Dyrk2 and CK2α in-house or gifts
The assay can be described thus: Selectivity panel AMPK. The format is biochemical. Conditions: 5 µM inhibitor.

Another assay concerns the target T7, MKNK1 (MNK1) (Homo sapiens, UniProt Q9BUB5).
T7 construct: purchased Life Technologies (Invitrogen SelectScreen); Dyrk1A, Dyrk2 and CK2α in-house or gifts
The experiment in a line: Selectivity panel MKNK1. The format is biochemical. Conditions: 5 µM inhibitor.

For a further assay, the target named is T8, MYLK2 (skMLCK) (Homo sapiens, UniProt Q9H1R3).
T8 construct: purchased Life Technologies (Invitrogen SelectScreen); Dyrk1A, Dyrk2 and CK2α in-house or gifts
The experiment in a line: Selectivity panel MYLK2. The format is biochemical. Conditions: 5 µM inhibitor.

In a further assay the target is T9, STK22B (TSSK2) (Homo sapiens, UniProt Q96PF2).
T9 construct: purchased Life Technologies (Invitrogen SelectScreen); Dyrk1A, Dyrk2 and CK2α in-house or gifts
The assay can be described thus: Selectivity panel STK22B. The following applies: 5 µM inhibitor. The format is biochemical.

Another assay addresses T10, TBK1 (Homo sapiens, UniProt Q9UHD2).
T10 construct: purchased Life Technologies (Invitrogen SelectScreen); Dyrk1A, Dyrk2 and CK2α in-house or gifts
The experiment in a line: Selectivity panel TBK1. The assay is classed as biochemical. The following applies: 5 µM inhibitor.

The next assay has as its target T11, PIK3CA/PIK3R1 (Homo sapiens, UniProt P42336).
T11 construct: purchased Life Technologies (Invitrogen SelectScreen); Dyrk1A, Dyrk2 and CK2α in-house or gifts
The experiment in a line: Selectivity panel PIK3CA/PIK3R1. The assay is classed as biochemical. The following applies: 5 µM inhibitor.

The target of a further assay is T12, PLK2/SNK (Homo sapiens, UniProt Q9NYY3).
T12 construct: purchased Life Technologies (Invitrogen SelectScreen); Dyrk1A, Dyrk2 and CK2α in-house or gifts
The experiment in a line: Selectivity panel PLK2/SNK. The format is biochemical. The following applies: 5 µM inhibitor.

For another assay, the target named is T13, CSNK1G1 (CK1 gamma 1) (Homo sapiens, UniProt Q9HCP0).
T13 construct: purchased Life Technologies (Invitrogen SelectScreen); Dyrk1A, Dyrk2 and CK2α in-house or gifts
The experiment in a line: Selectivity panel CSNK1G1. The format is biochemical. Conditions: 5 µM inhibitor.

For the next assay, the target named is T14, ACVR1 (ALK2) (Homo sapiens, UniProt Q04771).
T14 construct: purchased Life Technologies (Invitrogen SelectScreen); Dyrk1A, Dyrk2 and CK2α in-house or gifts
The experiment in a line: Selectivity panel ACVR1. The format is biochemical. The following applies: 5 µM inhibitor.

Another assay concerns the target T15, LYN A (Homo sapiens, UniProt P07948).
T15 construct: purchased Life Technologies (Invitrogen SelectScreen); Dyrk1A, Dyrk2 and CK2α in-house or gifts
The assay can be described thus: Selectivity panel LYN A. The following applies: 5 µM inhibitor. The assay is classed as biochemical.

The target of another assay is T16, KDR (VEGFR2) (Homo sapiens, UniProt P35968).
T16 construct: purchased Life Technologies (Invitrogen SelectScreen); Dyrk1A, Dyrk2 and CK2α in-house or gifts
The experiment in a line: Selectivity panel KDR. The assay is classed as biochemical. Conditions: 5 µM inhibitor.

The target of the next assay is T17, JAK2 (Homo sapiens, UniProt O60674).
T17 construct: purchased Life Technologies (Invitrogen SelectScreen); Dyrk1A, Dyrk2 and CK2α in-house or gifts
The assay can be described thus: Selectivity panel JAK2. The assay is classed as biochemical. The following applies: 5 µM inhibitor.

A further assay deals with T18, ABL1 (Homo sapiens, UniProt P00519).
T18 construct: purchased Life Technologies (Invitrogen SelectScreen); Dyrk1A, Dyrk2 and CK2α in-house or gifts
The experiment in a line: Selectivity panel ABL1. Conditions: 5 µM inhibitor. The format is biochemical.

The target in another assay is T19, EPHA5 (Homo sapiens, UniProt P54756).
T19 construct: purchased Life Technologies (Invitrogen SelectScreen); Dyrk1A, Dyrk2 and CK2α in-house or gifts
The assay can be described thus: Selectivity panel EPHA5. The assay is classed as biochemical. Conditions: 5 µM inhibitor.

For a further assay, the target named is T20, IGF1R (Homo sapiens, UniProt P08069).
T20 construct: purchased Life Technologies (Invitrogen SelectScreen); Dyrk1A, Dyrk2 and CK2α in-house or gifts
The experiment in a line: Selectivity panel IGF1R. The format is biochemical. The following applies: 5 µM inhibitor.

The next assay has as its target T21, MET (cMet) (Homo sapiens, UniProt P08581).
T21 construct: purchased Life Technologies (Invitrogen SelectScreen); Dyrk1A, Dyrk2 and CK2α in-house or gifts
The experiment in a line: Selectivity panel MET. Conditions: 5 µM inhibitor. The format is biochemical.

A further assay addresses T22, ZAP70 (Homo sapiens, UniProt P43403).
T22 construct: purchased Life Technologies (Invitrogen SelectScreen); Dyrk1A, Dyrk2 and CK2α in-house or gifts
The experiment in a line: Selectivity panel ZAP70. The assay is classed as biochemical. Conditions: 5 µM inhibitor.

Another assay addresses T23, SRC (Homo sapiens, UniProt P12931).
T23 construct: purchased Life Technologies (Invitrogen SelectScreen); Dyrk1A, Dyrk2 and CK2α in-house or gifts
The experiment in a line: Selectivity panel SRC. The assay is classed as biochemical. The following applies: 5 µM inhibitor.

The test system of the next assay is U2OS osteosarcoma cells. The assay can be described thus: ROS Assay (dihydroethidium). The assay is classed as cell-based. The following applies: 48 hours. On the procedure: U2OS osteosarcoma cells were plated on six well cell culture plates (5*10^5 cells/well). […]. Cells were washed with phosphate–buffered saline (PBS) and incubated for 30 min at 37°C in the dark with 10 µM dihydroethidium (DHE) in PBS and washed with PBS. The cells were then trypsinized, collected by centrifugation, and lysed with lysis buffer (100 mM Tris/HCl, pH 7.3, 2 mM EGTA, 2% Triton X100). The amount of ethidium produced by reactive oxygen species (ROS) was quantified by measuring the fluorescence (Ex485, Em620) in a POLARstar plate reader (BMG Labtech, Offenburg, Germany). Values obtained for different compound concentrations were compared using the two-sided Student's t-test; levels of significance thus obtained are indicated by asterisks.

For orientation: inhibition means the relative decrease from the control value, in per cent.

T15 sequence (P07948 whole entry): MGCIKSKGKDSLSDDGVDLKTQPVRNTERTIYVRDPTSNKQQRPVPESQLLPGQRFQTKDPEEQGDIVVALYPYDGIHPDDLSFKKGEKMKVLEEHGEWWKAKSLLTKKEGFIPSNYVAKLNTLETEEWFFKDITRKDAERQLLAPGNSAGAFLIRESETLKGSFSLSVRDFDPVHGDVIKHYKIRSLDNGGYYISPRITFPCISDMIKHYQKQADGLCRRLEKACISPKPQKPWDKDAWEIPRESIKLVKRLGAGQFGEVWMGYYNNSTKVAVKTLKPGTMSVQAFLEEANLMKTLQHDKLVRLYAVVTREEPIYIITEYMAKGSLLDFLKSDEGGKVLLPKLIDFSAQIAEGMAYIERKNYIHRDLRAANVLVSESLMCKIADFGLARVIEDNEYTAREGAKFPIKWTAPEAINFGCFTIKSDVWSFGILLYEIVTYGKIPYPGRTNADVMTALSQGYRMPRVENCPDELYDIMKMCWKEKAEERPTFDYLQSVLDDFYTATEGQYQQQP
T17 sequence (O60674 whole entry): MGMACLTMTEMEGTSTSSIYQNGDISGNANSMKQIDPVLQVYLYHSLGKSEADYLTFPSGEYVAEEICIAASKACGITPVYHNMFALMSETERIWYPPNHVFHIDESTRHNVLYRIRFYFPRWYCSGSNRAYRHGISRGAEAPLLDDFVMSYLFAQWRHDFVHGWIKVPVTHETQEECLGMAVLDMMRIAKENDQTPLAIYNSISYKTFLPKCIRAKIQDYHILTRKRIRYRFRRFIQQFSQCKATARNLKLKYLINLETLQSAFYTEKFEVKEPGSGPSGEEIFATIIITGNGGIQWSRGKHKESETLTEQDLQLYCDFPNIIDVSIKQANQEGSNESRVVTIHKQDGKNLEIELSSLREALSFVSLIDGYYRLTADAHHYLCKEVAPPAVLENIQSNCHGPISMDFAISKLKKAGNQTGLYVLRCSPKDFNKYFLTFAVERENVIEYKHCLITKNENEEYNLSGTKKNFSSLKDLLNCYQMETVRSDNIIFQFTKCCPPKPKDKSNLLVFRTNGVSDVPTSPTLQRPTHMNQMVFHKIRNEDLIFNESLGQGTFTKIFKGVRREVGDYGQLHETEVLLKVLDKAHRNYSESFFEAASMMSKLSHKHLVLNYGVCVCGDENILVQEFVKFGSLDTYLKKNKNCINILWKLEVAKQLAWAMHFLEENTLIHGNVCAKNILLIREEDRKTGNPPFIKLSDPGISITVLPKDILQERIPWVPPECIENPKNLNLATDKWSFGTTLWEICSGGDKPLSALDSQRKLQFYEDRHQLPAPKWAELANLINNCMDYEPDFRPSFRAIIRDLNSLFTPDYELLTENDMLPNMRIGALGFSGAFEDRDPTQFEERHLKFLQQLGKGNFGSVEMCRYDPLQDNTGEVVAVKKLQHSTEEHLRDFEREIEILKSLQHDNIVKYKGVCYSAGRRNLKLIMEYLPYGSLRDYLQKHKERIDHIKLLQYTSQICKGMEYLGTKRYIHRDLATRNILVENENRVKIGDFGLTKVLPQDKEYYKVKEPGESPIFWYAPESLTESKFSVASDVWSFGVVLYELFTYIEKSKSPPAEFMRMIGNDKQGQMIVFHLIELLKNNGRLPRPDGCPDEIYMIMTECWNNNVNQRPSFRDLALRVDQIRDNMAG
T21 sequence (P08581 25-1390): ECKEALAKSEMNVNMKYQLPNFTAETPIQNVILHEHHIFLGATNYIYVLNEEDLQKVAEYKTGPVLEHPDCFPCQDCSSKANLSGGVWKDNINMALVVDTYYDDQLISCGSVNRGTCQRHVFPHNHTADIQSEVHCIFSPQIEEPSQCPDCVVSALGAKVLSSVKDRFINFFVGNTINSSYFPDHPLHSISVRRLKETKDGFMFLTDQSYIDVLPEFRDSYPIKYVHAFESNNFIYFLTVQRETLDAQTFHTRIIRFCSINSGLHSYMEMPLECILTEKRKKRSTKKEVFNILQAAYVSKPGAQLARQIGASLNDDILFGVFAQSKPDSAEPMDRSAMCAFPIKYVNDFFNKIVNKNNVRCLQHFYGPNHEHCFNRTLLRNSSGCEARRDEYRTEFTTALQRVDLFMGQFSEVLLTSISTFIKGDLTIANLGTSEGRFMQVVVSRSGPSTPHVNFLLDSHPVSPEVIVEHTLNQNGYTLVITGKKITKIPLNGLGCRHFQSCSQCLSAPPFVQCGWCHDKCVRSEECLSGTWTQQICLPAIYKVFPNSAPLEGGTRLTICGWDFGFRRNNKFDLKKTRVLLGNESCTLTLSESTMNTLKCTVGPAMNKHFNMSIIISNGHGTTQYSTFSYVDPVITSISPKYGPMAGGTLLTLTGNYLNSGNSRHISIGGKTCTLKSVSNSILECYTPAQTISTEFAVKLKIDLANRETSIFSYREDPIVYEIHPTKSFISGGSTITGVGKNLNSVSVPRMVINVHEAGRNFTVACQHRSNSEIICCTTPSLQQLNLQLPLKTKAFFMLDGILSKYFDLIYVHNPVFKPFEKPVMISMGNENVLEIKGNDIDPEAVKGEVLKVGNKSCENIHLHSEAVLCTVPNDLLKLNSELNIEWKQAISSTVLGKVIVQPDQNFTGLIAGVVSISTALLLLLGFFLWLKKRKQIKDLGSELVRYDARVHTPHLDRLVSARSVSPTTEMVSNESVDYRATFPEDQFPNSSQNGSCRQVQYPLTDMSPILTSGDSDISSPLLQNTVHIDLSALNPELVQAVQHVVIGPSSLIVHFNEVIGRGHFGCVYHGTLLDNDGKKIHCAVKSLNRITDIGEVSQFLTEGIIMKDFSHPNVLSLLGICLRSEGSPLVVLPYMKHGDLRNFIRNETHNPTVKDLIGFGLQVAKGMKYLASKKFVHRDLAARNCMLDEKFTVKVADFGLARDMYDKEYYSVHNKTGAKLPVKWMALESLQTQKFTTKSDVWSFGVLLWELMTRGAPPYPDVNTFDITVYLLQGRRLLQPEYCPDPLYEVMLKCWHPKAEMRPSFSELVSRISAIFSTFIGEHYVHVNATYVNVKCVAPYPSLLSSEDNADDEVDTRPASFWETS
T4 sequence (O00141 whole entry): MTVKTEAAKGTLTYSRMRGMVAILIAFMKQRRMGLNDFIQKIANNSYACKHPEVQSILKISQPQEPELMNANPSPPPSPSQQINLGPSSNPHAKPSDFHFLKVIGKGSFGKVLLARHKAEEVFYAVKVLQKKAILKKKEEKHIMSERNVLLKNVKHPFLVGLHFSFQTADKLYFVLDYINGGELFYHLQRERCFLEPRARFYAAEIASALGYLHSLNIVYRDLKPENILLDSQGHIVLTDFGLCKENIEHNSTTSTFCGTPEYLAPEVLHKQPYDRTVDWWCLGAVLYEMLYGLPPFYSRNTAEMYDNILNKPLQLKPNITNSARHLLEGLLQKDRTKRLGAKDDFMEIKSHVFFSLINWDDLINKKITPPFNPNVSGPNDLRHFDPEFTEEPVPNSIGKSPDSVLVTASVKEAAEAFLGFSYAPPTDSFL
T5 sequence (O15530 whole entry): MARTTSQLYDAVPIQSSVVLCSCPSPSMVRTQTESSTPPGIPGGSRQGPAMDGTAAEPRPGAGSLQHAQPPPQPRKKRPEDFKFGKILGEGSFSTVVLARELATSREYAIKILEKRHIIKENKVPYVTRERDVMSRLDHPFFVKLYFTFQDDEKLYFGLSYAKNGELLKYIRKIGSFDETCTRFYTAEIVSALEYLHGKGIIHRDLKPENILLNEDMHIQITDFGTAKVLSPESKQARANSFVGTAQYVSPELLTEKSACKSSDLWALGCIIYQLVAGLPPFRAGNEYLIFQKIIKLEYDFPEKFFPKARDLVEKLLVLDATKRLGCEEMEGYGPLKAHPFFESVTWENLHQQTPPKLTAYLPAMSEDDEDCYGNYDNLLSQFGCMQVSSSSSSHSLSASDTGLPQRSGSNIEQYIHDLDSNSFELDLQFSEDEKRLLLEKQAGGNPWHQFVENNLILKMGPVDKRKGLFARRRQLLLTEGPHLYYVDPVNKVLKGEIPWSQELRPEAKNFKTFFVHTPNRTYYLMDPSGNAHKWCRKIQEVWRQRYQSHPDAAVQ
T22 sequence (P43403 whole entry): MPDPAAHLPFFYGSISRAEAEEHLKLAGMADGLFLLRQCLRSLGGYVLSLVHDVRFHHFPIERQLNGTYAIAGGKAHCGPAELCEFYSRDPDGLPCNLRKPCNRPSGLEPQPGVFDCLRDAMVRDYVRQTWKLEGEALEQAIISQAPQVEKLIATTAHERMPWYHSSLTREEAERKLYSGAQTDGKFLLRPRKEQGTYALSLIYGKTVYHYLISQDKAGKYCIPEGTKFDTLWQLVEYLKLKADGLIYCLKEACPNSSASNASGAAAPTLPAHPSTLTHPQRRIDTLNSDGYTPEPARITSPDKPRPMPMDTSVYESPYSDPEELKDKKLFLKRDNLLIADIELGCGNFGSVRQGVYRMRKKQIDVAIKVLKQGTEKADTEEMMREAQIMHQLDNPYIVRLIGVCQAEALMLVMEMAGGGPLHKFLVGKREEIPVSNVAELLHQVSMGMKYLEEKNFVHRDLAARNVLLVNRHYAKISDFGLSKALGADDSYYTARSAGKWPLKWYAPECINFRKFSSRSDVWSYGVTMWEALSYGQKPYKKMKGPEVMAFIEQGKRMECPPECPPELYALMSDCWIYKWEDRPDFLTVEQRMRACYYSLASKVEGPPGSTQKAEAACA
T13 sequence (Q9HCP0 whole entry): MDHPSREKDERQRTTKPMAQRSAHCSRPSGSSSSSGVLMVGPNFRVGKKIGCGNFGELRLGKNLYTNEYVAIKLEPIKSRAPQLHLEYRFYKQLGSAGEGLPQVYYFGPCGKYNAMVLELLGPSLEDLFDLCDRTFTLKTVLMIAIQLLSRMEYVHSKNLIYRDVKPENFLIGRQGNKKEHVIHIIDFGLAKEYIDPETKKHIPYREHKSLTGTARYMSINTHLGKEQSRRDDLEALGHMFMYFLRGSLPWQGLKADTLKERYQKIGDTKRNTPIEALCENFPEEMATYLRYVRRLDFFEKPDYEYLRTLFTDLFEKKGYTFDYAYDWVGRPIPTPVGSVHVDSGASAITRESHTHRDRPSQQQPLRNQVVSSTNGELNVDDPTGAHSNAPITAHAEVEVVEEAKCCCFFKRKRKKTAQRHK

For the compound `c1cncc(-c2csc(-c3cncs3)c2)c1` [Compound 48, 3-[5-(1,3-thiazol-5-yl)thiophen-3-yl]pyridine], the inhibition at 5 µM was 99% against CLK4; 1% on MAPK1 (ERK2); 1% against EEF2K; 22% against SGK (SGK1); 7% at PDK1; -5% against AMPK A1/B1/G1. Further, the inhibition at 5 µM on MKNK1 (MNK1) was 47%; against MYLK2 (skMLCK), 31%; against STK22B (TSSK2), -2%; at TBK1, 8%; against PIK3CA/PIK3R1, 12%; against PLK2/SNK, 1%. Moreover, the inhibition at 5 µM on CSNK1G1 (CK1 gamma 1) was -3%; at ACVR1 (ALK2), 51%; at LYN A it was 13%; at KDR (VEGFR2), 10%; against JAK2 it was -4%; against ABL1 it was 6%. Besides, the inhibition at 5 µM was -6% against EPHA5; 3% at IGF1R; -12% against MET (cMet); -1% against ZAP70; -4% on SRC.

Turning to `c1cncc(-c2cc(-c3cncs3)cs2)c1` [Compound 29, 3-[4-(1,3-thiazol-5-yl)thiophen-2-yl]pyridine], in the assay with U2OS osteosarcoma cells, the “concentration at which enhancement of reporter dye fluorescence (ROS) starts” value stood at 0.2 µM. For the same compound, the inhibition at 5 µM is 105% on CLK4; -6% against MAPK1 (ERK2); 0% on EEF2K; 20% on SGK (SGK1); -10% against PDK1; -9% against AMPK A1/B1/G1. The inhibition at 5 µM against MKNK1 (MNK1) was 83%; at MYLK2 (skMLCK), 12%; at STK22B (TSSK2), -2%; against TBK1, 3%; at PIK3CA/PIK3R1, 21%; on PLK2/SNK it was -3%. In addition, the inhibition at 5 µM was -5% against CSNK1G1 (CK1 gamma 1); 51% against ACVR1 (ALK2); 16% at LYN A; 6% on KDR (VEGFR2); -2% at JAK2; 2% on ABL1. The inhibition at 5 µM against EPHA5 is -9%; at IGF1R, 1%; at MET (cMet) it was 1%; at ZAP70, 4%; at SRC it was -8%.
